HELM strings list units from the 5' end as sugar, base in round brackets, then linkage (d deoxyribose, r ribose, m 2'-O-methyl, p phosphodiester). Strings are as the collection lists them, not checked against the first reports. ss, as = sense and antisense strand; [lna] = locked nucleic acid (LNA); [una] = unlocked nucleic acid; [hna] = hexitol nucleic acid; [s4r] = 4'-thioribose; [fl2r] = 2'-fluoro
Note: test system not given here.

The conditions of this data set: siRNA.
As for “RNA1{r(U)p.m(U)p.r(A)p.m(C)p.r(A)p.r(A)p.r(A)p.r(G)p.r(G)p.m(A)p.r(U)p.r(C)p.r(U)p.r(C)p.r(C)p.r(U)p.r(C)p.r(C)p.r(C)p.r(T)p.r(T)}|RNA2{r(G)p.r(G)p.r(G)p.r(A)p.r(G)p.r(G)p.r(A)p.r(G)p.m(A)p.r(U)p.r(C)p.r(C)p.r(U)p.r(U)p.m(U)p.r(G)p.m(U)p.r(A)p.r(A)p.r(T)p.r(T)}$$$RNA1{StrandType:ss}|RNA2{StrandType:as}$”, the target mRNA knockdown was found to be 78%. With “RNA1{r(G)p.r(A)p.r(A)p.r(A)p.r(C)p.r(U)p.r(G)p.r(G)p.r(U)p.r(A)p.r(C)p.r(U)p.r(U)p.r(U)p.r(C)p.r(C)p.r(C)p.r(C)p.r(C)p.r(T)p.r(T)}|RNA2{r(G)p.r(G)p.r(G)p.r(G)p.r(G)p.r(A)p.r(A)p.r(A)p.r(G)p.[fl2r](U)p.r(A)p.r(C)p.r(C)p.r(A)p.r(G)p.[fl2r](U)p.[fl2r](U)p.[fl2r](U)p.r(C)p.r(T)p.r(T)}$$$RNA1{StrandType:ss}|RNA2{StrandType:as}$”, the target mRNA knockdown was 26%. The substance “RNA1{r(U)p.r(G)p.r(A)p.r(G)p.r(A)p.r(G)p.r(A)p.r(A)p.r(A)p.r(G)p.r(C)p.r(A)p.r(C)p.r(A)p.r(G)p.r(A)p.r(A)p.r(A)p.r(A)p.d(T)p.d(T)}|RNA2{[lna](T)p.r(U)p.r(U)p.r(U)p.r(C)p.r(U)p.r(G)p.r(U)p.r(G)p.r(C)p.r(U)p.r(U)p.r(U)p.r(C)p.r(U)p.r(C)p.r(U)p.r(C)p.r(A)p.[lna](T)p.[lna](T)}$$$RNA1{StrandType:ss}|RNA2{StrandType:as}$” returned a target mRNA knockdown of 34%. In turn, “RNA1{r(G)p.m(U)p.r(A)p.r(U)p.r(C)p.r(C)p.r(G)p.r(A)p.r(A)p.m(G)p.m(A)p.r(C)p.r(G)p.r(A)p.r(A)p.r(G)p.r(C)p.m(U)p.r(A)p.r(T)p.r(T)}|RNA2{m(U)p.r(A)p.r(G)p.r(C)p.r(U)p.r(U)p.r(C)p.r(G)p.r(U)p.r(C)p.r(U)p.r(U)p.r(C)p.r(G)p.r(G)p.r(A)p.m(U)p.r(A)p.r(C)p.r(T)p.r(T)}$$$RNA1{StrandType:ss}|RNA2{StrandType:as}$” gave a target mRNA knockdown of 92%. The substance “RNA1{r(C)p.r(U)p.r(U)p.r(A)p.r(C)p.r(G)p.r(C)p.r(U)p.r(G)p.r(A)p.r(G)p.r(U)p.r(A)p.r(C)p.r(U)p.r(U)p.r(C)p.r(G)p.r(A)p.r(T)p.r(T)}|RNA2{r(U)p.r(C)p.r(G)p.r(A)p.r(A)p.r(G)p.r(U)p.r(A)p.r(C)p.r(U)p.r(C)p.r(A)p.r(G)p.r(C)p.[lna](G)p.r(U)p.r(A)p.r(A)p.r(G)p.r(T)p.r(T)}$$$RNA1{StrandType:ss}|RNA2{StrandType:as}$” registered a target mRNA knockdown of 85%. The value for “RNA1{r(C)p.m(U)p.r(A)p.r(C)p.r(C)p.r(U)p.r(U)p.r(C)p.r(U)p.r(C)p.r(C)p.r(U)p.r(C)p.r(U)p.r(U)p.r(C)p.r(U)p.r(C)p.r(C)p.r(T)p.r(T)}|RNA2{r(G)p.r(G)p.r(A)p.r(G)p.r(A)p.r(A)p.r(G)p.r(A)p.r(G)p.r(G)p.r(A)p.r(G)p.r(A)p.r(A)p.r(G)p.r(G)p.m(U)p.r(A)p.r(G)p.r(T)p.r(T)}$$$RNA1{StrandType:ss}|RNA2{StrandType:as}$” was 69%.

Regarding “RNA1{r(G)p.r(G)p.r(G)p.r(A)p.r(G)p.r(G)p.r(U)p.r(C)p.r(U)p.m(U)p.r(A)p.r(G)p.r(A)p.r(A)p.r(A)p.r(A)p.r(C)p.r(A)p.r(C)p.r(T)p.r(T)}|RNA2{r(G)p.r(U)p.r(G)p.r(U)p.r(U)p.r(U)p.r(U)p.r(C)p.m(U)p.r(A)p.r(A)p.r(G)p.r(A)p.r(C)p.r(C)p.r(U)p.r(C)p.r(C)p.r(C)p.r(T)p.r(T)}$$$RNA1{StrandType:ss}|RNA2{StrandType:as}$”, the target mRNA knockdown is 84%. “RNA1{r(G)p.r(A)p.r(C)p.r(G)p.[hna](U)p.r(A)p.r(A)p.[hna](A)p.r(C)p.r(G)p.[hna](G)p.r(C)p.r(C)p.[hna](A)p.r(C)p.r(A)p.r(A)p.r(G)p.r(U)p.[hna](U)p.d(T)}|RNA2{r(A)p.r(C)p.[hna](U)p.r(U)p.r(G)p.r(U)p.r(G)p.r(G)p.r(C)p.r(C)p.r(G)p.r(U)p.r(U)p.r(U)p.r(A)p.r(C)p.r(G)p.[hna](U)p.[hna](C)p.[hna](G)p.d(T)}$$$RNA1{StrandType:ss}|RNA2{StrandType:as}$” yielded a target mRNA knockdown of 25.2%. The value for “RNA1{r(A)p.r(G)p.r(G)p.r(A)p.r(G)p.r(A)p.r(C)p.r(C)p.r(G)p.[fl2r](U)p.r(G)p.r(A)p.[fl2r](C)p.r(A)p.r(U)p.r(U)p.r(U)p.r(C)p.r(G)p.r(T)p.r(T)}|RNA2{r(C)p.r(G)p.r(A)p.r(A)p.r(A)p.[fl2r](U)p.r(G)p.r(U)p.r(C)p.[fl2r](A)p.r(C)p.r(G)p.r(G)p.r(U)p.r(C)p.r(U)p.r(C)p.r(C)p.r(U)p.r(T)p.r(T)}$$$RNA1{StrandType:ss}|RNA2{StrandType:as}$” was 69%. Turning to “RNA1{r(A)p.r(A)p.r(C)p.r(U)p.r(C)p.[fl2r](U)p.r(A)p.r(C)p.[fl2r](U)p.r(G)p.[fl2r](U)p.r(G)p.r(G)p.r(A)p.r(G)p.r(U)p.r(C)p.r(G)p.r(G)p.r(T)p.r(T)}|RNA2{r(C)p.r(C)p.r(G)p.r(A)p.r(C)p.r(U)p.r(C)p.[fl2r](C)p.r(A)p.[fl2r](C)p.r(A)p.r(G)p.[fl2r](U)p.r(A)p.r(G)p.r(A)p.r(G)p.r(U)p.r(U)p.r(T)p.r(T)}$$$RNA1{StrandType:ss}|RNA2{StrandType:as}$”, the target mRNA knockdown came to 65%. In the case of “RNA1{r(C)p.r(G)p.[s4r](U)p.r(A)p.r(C)p.r(G)p.r(C)p.r(G)p.r(G)p.r(A)p.r(A)p.[s4r](U)p.r(A)p.r(C)p.[s4r](U)p.[s4r](U)p.r(C)p.r(G)p.r(A)p.r(T)p.r(T)}|RNA2{r(U)p.r(C)p.r(G)p.r(A)p.r(A)p.r(G)p.r(U)p.r(A)p.r(U)p.r(U)p.r(C)p.r(C)p.r(G)p.r(C)p.r(G)p.r(U)p.r(A)p.r(C)p.r(G)p.r(T)p.r(T)}$$$RNA1{StrandType:ss}|RNA2{StrandType:as}$”, the target mRNA knockdown came to 96.3%.

“RNA1{r(A)p.r(A)p.r(C)p.r(C)p.r(C)p.r(A)p.r(C)p.r(C)p.r(A)p.r(C)p.r(A)p.[fl2r](G)p.r(C)p.[fl2r](U)p.[fl2r](A)p.[fl2r](G)p.r(A)p.r(A)p.r(C)p.r(U)p.r(U)}|RNA2{r(A)p.r(A)p.r(G)p.r(U)p.r(U)p.r(C)p.r(U)p.r(A)p.r(G)p.r(C)p.r(U)p.r(G)p.r(U)p.r(G)p.r(G)p.r(U)p.r(G)p.r(G)p.r(G)p.r(U)p.r(U)}$$$RNA1{StrandType:ss}|RNA2{StrandType:as}$” came in with a target mRNA knockdown of 75%. Turning to “RNA1{r(C)p.r(U)p.r(U)p.r(A)p.r(C)p.r(G)p.r(C)p.r(U)p.r(G)p.r(A)p.r(G)p.r(U)p.r(A)p.r(C)p.r(U)p.r(U)p.r(C)p.r(G)p.r(A)p.r(T)p.r(T)}|RNA2{r(T)p.r(C)p.r(G)p.r(A)p.r(A)p.[lna](G)p.r(U)p.r(A)p.r(C)p.r(U)p.r(C)p.r(A)p.r(G)p.r(C)p.r(G)p.r(U)p.r(A)p.r(A)p.r(G)p.[lna](T)p.[lna](T)}$$$RNA1{StrandType:ss}|RNA2{StrandType:as}$”, the target mRNA knockdown is 85%. For “RNA1{m(A)p.r(C)p.m(G)p.r(U)p.m(C)p.r(A)p.m(C)p.r(C)p.m(G)p.r(A)p.m(G)p.r(G)p.m(A)p.r(G)p.m(A)p.r(A)p.m(G)p.r(U)p.m(A)p.r(T)p.r(T)}|RNA2{r(U)p.r(A)p.r(C)p.r(U)p.r(U)p.r(C)p.r(U)p.r(C)p.r(C)p.r(U)p.r(C)p.r(G)p.r(G)p.r(U)p.r(G)p.r(A)p.r(C)p.r(G)p.r(U)p.r(T)p.r(T)}$$$RNA1{StrandType:ss}|RNA2{StrandType:as}$”, the target mRNA knockdown is 36%. The substance “RNA1{r(G)p.r(G)p.r(A)p.r(C)p.r(A)p.r(U)p.r(U)p.r(C)p.r(A)p.r(G)p.r(A)p.r(A)p.r(C)p.r(A)p.r(A)p.r(G)p.r(A)p.r(A)p.r(A)p.[una](U)p.[una](U)}|RNA2{[una](U)p.r(U)p.r(U)p.r(C)p.r(U)p.r(U)p.r(G)p.r(U)p.r(U)p.r(C)p.r(U)p.r(G)p.r(A)p.r(A)p.r(U)p.r(G)p.r(U)p.r(C)p.r(C)p.[una](U)p.[una](U)}$$$RNA1{StrandType:ss}|RNA2{StrandType:as}$” gave a target mRNA knockdown of 75%. With “RNA1{r(G)p.r(G)p.r(A)p.r(A)p.r(G)p.r(A)p.r(A)p.r(G)p.r(A)p.r(U)p.r(A)p.r(G)p.r(A)p.r(G)p.r(C)p.r(A)p.r(U)p.r(C)p.r(C)p.r(T)p.r(T)}|RNA2{r(G)p.r(G)p.r(A)p.r(U)p.r(G)p.r(C)p.r(U)p.r(C)p.[fl2r](U)p.r(A)p.r(U)p.r(C)p.r(U)p.r(U)p.r(C)p.r(U)p.r(U)p.r(C)p.r(C)p.r(T)p.r(T)}$$$RNA1{StrandType:ss}|RNA2{StrandType:as}$” the figure was 37%; with “RNA1{r(G)p.r(U)p.r(A)p.r(U)p.r(G)p.r(A)p.r(C)p.r(C)p.r(G)p.r(A)p.r(C)p.r(U)p.r(A)p.r(C)p.r(G)p.r(C)p.r(G)p.r(U)p.r(A)p.r(T)p.r(T)}|RNA2{r(U)p.r(U)p.r(C)p.r(A)p.r(G)p.r(U)p.r(G)p.r(U)p.r(G)p.r(A)p.r(U)p.r(G)p.r(A)p.r(C)p.r(A)p.r(C)p.r(U)p.r(U)p.r(G)p.[una](T)p.[una](T)}$$$RNA1{StrandType:ss}|RNA2{StrandType:as}$”, 81%; with “RNA1{r(C)p.r(U)p.r(U)p.r(A)p.r(C)p.r(G)p.r(C)p.r(U)p.r(G)p.r(A)p.r(G)p.r(U)p.r(A)p.r(C)p.r(U)p.r(U)p.r(C)p.r(G)p.r(A)p.r(T)p.r(T)}|RNA2{[lna](T)p.r(C)p.r(G)p.r(A)p.r(A)p.r(G)p.r(U)p.r(A)p.r(C)p.r(U)p.r(C)p.r(A)p.r(G)p.r(C)p.r(G)p.r(U)p.r(A)p.r(A)p.r(G)p.[lna](T)p.[lna](T)}$$$RNA1{StrandType:ss}|RNA2{StrandType:as}$”, 57%. With “RNA1{m(A)p.r(U)p.m(A)p.r(C)p.m(U)p.r(U)p.m(G)p.r(G)p.m(C)p.r(G)p.m(G)p.r(G)p.m(C)p.r(U)p.m(C)p.r(U)p.m(U)p.r(U)p.m(C)p.r(T)p.r(T)}|RNA2{r(G)p.r(A)p.r(A)p.r(A)p.r(G)p.r(A)p.r(G)p.r(C)p.r(C)p.r(C)p.r(G)p.r(C)p.r(C)p.r(A)p.r(A)p.r(G)p.r(U)p.r(A)p.r(U)p.r(T)p.r(T)}$$$RNA1{StrandType:ss}|RNA2{StrandType:as}$” the figure was 19%; with “RNA1{r(G)p.r(A)p.r(G)p.r(G)p.r(A)p.r(U)p.r(G)p.r(G)p.r(A)p.r(U)p.r(U)p.r(C)p.r(G)p.r(A)p.r(C)p.r(U)p.r(U)p.r(A)p.r(G)p.r(T)p.r(T)}|RNA2{r(C)p.m(U)p.r(A)p.r(A)p.r(G)p.r(U)p.r(C)p.r(G)p.r(A)p.r(A)p.r(U)p.r(C)p.r(C)p.r(A)p.r(U)p.r(C)p.r(C)p.r(U)p.r(C)p.r(T)p.r(T)}$$$RNA1{StrandType:ss}|RNA2{StrandType:as}$”, 94%.
